Measurements: PubChem BioAssay (NCI)
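Values below derive from 48-hour exposures of cells grown in 96-well plates, with endpoints linearly interpolated between the two concentrations bracketing the appropriate inhibition level. GI50 marks 50% less growth. TGI marks complete inhibition of growth.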

Key:
Test in all cases: inhibition of tumour cell growth, NCI panel, 48 h
[1] = tested on: K-562 leukemia
[2] = tested on: KM20L2 colon
[3] = tested on: OVCAR-4 ovarian
[4] = tested on: SNB-19 CNS
[5] = tested on: SW-620 colon
[6] = tested on: UACC-257 melanoma
[7] = tested on: DLD-1 colon
[8] = tested on: RXF 393 renal
[9] = tested on: HS 578T breast
[10] = tested on: NCI/ADR-RES ovarian

Compound	GI50 [1]	TGI [1] [µM]	GI50 [2] [µM]	TGI [2] [µM]	GI50 [3]	TGI [3] [µM]	GI50 [4]	TGI [4]	GI50 [5]	TGI [5] [µM]	GI50 [6]	TGI [6]	TGI [7] [µM]	TGI [8]	GI50 [7] [µM]	GI50 [8] [µM]	GI50 [9]	TGI [9]	GI50 [10]	TGI [10] [µM]
CC(C)([NH-])CO.CC(C)([NH-])CO.[Cl][Cd][Cl]	18.7 µM	40	30.9	79.7	12.4 µM	25.8	> 100 µM	> 100 µM	18.6 µM	38.9	> 100 µM	> 100 µM	–	–	–	–	–	–	–	–
C[C@]12CC/C(=N\O)C=C1CC[C@@H]1C2CC[C@@]2(C)C1CC[C@@H]2OC1CCCCO1 (stereo partly specified)	–	46.3	–	30.4	–	31.9	–	33.1 µM	–	32	–	34.6 µM	> 100	50.5 µM	–	–	–	–	–	–
Cc1ccc(S(=O)(=O)NC2(C=O)CCCC3CCCCC32)cc1 (stereo unspecified)	–	> 100	–	> 100	–	> 100	–	> 100 µM	–	> 100	–	> 100 µM	> 100	> 100 µM	–	–	–	–	–	–
COc1ccc(/C(Cl)=C(\C=N/O)c2ccc(OC)c(OC)c2)cc1OC	–	> 100	–	> 100	–	> 100	–	> 100 µM	–	> 100	–	> 100 µM	> 100	> 100 µM	–	–	–	–	–	–
CC12CCC3(OCCO3)C(OC(=O)c3ccccc3)=C1CCC21OCCO1 (stereo unspecified)	–	–	–	> 100	–	> 100	–	> 100 µM	–	> 100	–	> 100 µM	> 100	> 100 µM	–	–	–	–	–	–
Cc1cccc(C(C)(C)C)c1NC(=O)CC1C(=O)Nc2ccccc2S1(=O)=O (stereo unspecified)	–	13	–	22.3	–	25.5	–	29.2 µM	–	22.1	–	> 100 µM	18.3	29 µM	–	–	–	–	–	–
COc1ccc(-c2cc(=O)c3cc(OC)ccc3[nH]2)cc1	–	> 100	–	> 100	–	> 100	–	> 100 µM	–	> 100	–	> 100 µM	> 100	> 100 µM	–	–	–	–	–	–
CN1C(=O)C2C3C=C4c5ccccc5N(c5ccccc5)C4(C2C1=O)[C@H]1C(=O)N(C)C(=O)[C@@H]31 (stereo partly specified)	–	> 100	–	> 100	–	> 100	–	> 100 µM	–	> 100	–	> 100 µM	> 100	–	–	–	–	–	–	–
CCC[CH2][Sn]1([CH2]CCC)[O]CC(CN(C)Cc2ccccc2)[O]1 (stereo unspecified)	2.76 µM	12.9	12	26	10.7 µM	23	12.6 µM	25.2 µM	2.77 µM	11.1	7.85 µM	20.2 µM	26.1	23.1 µM	12.3	–	–	–	–	–
COc1ccccc1-c1cc(=O)c2cc3c(cc2[nH]1)OCO3	–	> 100	18.7	37.5	–	92	–	> 100 µM	–	> 100	–	> 100 µM	> 100	56.2 µM	–	15.1	–	–	–	–
CC(=O)C1C(c2ccc(N(C)C)cc2)c2cc3c(cc2OC1(C)O)OCO3 (stereo unspecified)	–	63.5	–	26.6	–	> 100	–	> 100 µM	–	> 100	–	> 100 µM	> 100	> 100 µM	–	–	–	–	–	–
O=[P+](O)c1ccsc1	–	> 100	–	> 100	–	–	–	–	–	> 100	–	–	> 100	> 100 µM	–	–	–	–	–	–
COC(=O)c1cccn1C(=O)n1cccc1	–	> 100	–	> 100	–	> 100	–	> 100 µM	–	> 100	–	> 100 µM	> 100	> 100 µM	–	–	–	–	–	–
Cc1cccc(C)c1NC(=O)C1C(=O)N(c2c(C)cccc2C)C(=O)/C1=N\N (stereo unspecified)	–	> 100	–	> 100	–	> 100	–	> 100 µM	–	> 100	–	> 100 µM	> 100	> 100 µM	–	–	–	–	–	–
C=C1CCC2C3(C)COC(c4ccccc4)OC3CCC2(C)C1/C=C/C1=CCOC1=O (stereo unspecified)	2.31 µM	> 100	–	–	3.63 µM	16.3	35.8 µM	> 100 µM	2.96 µM	10	63.4 µM	> 100 µM	–	8.65 µM	–	2.93	1.86 µM	8.61 µM	3.17 µM	> 100
C[n+]1c2cc(N)ccc2cc2ccc(N)cc21	1.18 µM [middle of 4 runs]	–	–	–	1.34 µM [middle of 4 runs]	–	933 nM [middle of 4 runs]	5.01 µM [middle of 4 runs]	198 nM [middle of 4 runs]	–	1.79 µM [middle of 4 runs]	3.91 µM [middle of 4 runs]	–	3.59 µM [middle of 4 runs]	–	–	1.54 µM [middle of 4 runs]	6.31 µM [middle of 4 runs]	2.72 µM [middle of 4 runs]	–
Cc1nc2ccccc2c(/C=C/c2ccc(Cl)cc2)c1C(=O)/C=C/c1ccc(C(F)(F)F)cc1	0.31 µM	> 100	–	–	1.26 µM	2.61	0.722 µM	1.97 µM	0.251 µM	0.761	1.06 µM	2.93 µM	–	0.988 µM	–	0.322	0.659 µM	3.57 µM	0.619 µM	3.63
O=C(CCN1CCN(c2ccccc2)CC1)N1CCc2c([nH]c3ccccc23)C1c1cccnc1 (stereo unspecified)	–	45	–	29.5	–	33	–	66.7 µM	–	32.7	–	31.5 µM	36.2	61 µM	–	–	–	–	–	–
O=C(NCCCO)c1cc(Cl)ccc1O	0.901 µM	18.4	–	–	2.54 µM	12.4	2.26 µM	17.6 µM	2.94 µM	14.3	2.23 µM	7.54 µM	–	12.9 µM	–	3.94	3.98 µM	21.4 µM	9.31 µM	27.9
Cc1cc(N2CCOCC2)nc(N[C@@H]2CCC[C@H](Nc3ccnc4cc(Cl)ccc34)C2)n1	1.21 µM	3.69	–	–	2.8 µM	10.8	3.35 µM	12.2 µM	2.07 µM	5.36	2.14 µM	3.89 µM	–	3.11 µM	–	1.44	1.84 µM	5.14 µM	2.59 µM	8
CC(Nc1ccc(S(=O)(=O)N=C(N)N)cc1)c1c2ccccc2nc2ccccc12 (stereo unspecified)	–	99.4	–	> 100	–	31.3	–	> 100 µM	–	> 100	–	97.6 µM	> 100	85.3 µM	–	–	–	–	–	–
